Source: patent publication US12473262B2, “Aryl hydrocarbon receptor activators” (Oregon State University, priority 2019, dated 2025)

Biological target: aryl hydrocarbon receptor (AhR) (Mus musculus (Mouse), UniProt P30561)
Assay: AhR ligand screening: AhRE-luciferase reporter in transfected Hepa1 cells
Assay type: cell-based
Details: for Fold @ 1 nM: fold change of luciferase expression at 1 nM test compound relative to vehicle (0.1% DMSO); for Fold @ 100 nM: fold change of luciferase expression at 100 nM test compound relative to vehicle (0.1% DMSO); for Fold @ 10 uM: fold change of luciferase expression at 10 uM test compound relative to vehicle (0.1% DMSO); for Fold relative to benchmark @ 100 nM: luciferase expression at 100 nM test compound relative to 100 nM benchmark compound 11-cl-BBQ
From the text: The AhR is a ligand-activated transcription factor that dimerizes with ARNT to regulate gene expression, and genes that are regulated by AhR ligands have AhR response elements (AhRE) in their promotor regions.
Briefly, Hepa1 cells were transfected with a reporter construct consisting of AhRE linked to luciferase. The addition of AhR ligands to the transfected cells induces luciferase production that is directly proportional to the amount of AhR activation. We used this reporter system to identify novel compounds with AhR-activating properties. Transfected Hepa1 cells were plated at a density of 1×10^4 cells/well in 100 μL of cell culture media in 96 well plates and grown overnight. […] Following incubation with the compounds, the media was removed, and cells were harvested with lysis buffer. The lysates were transferred to opaque 96 well plates, where they were assayed well-by-well for luciferase activity by injection of luciferase assay substrate with a 2 sec mixing time and 15 sec integration period on a Tropix TR717 microplate luminometer. Data were expressed as fold induction of luciferase relative to vehicle (0.1% DMSO) treated cells.

aryl hydrocarbon receptor (AhR), sequence (P30561 10-805): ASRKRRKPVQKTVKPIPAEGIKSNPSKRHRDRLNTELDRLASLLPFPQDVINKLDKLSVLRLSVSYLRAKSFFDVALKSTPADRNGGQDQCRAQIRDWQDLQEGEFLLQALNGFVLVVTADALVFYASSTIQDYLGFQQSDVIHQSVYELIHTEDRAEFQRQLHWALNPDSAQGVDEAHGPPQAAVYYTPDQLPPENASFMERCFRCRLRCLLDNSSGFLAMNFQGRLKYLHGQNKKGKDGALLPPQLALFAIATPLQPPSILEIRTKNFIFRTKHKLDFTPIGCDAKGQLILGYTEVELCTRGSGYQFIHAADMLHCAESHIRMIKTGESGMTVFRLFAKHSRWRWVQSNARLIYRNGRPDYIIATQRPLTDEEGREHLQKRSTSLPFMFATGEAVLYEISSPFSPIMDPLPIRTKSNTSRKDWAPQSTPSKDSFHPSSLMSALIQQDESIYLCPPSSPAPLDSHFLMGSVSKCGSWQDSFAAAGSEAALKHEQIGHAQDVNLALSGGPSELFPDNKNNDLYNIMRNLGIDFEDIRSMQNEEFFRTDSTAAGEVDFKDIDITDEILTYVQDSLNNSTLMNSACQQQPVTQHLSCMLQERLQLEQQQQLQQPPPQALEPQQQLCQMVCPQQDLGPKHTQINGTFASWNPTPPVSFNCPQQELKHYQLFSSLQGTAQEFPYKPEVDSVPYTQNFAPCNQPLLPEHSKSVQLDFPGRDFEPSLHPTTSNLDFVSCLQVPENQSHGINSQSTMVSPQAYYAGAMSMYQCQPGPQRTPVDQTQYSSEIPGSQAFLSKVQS
aryl hydrocarbon receptor (AhR), sequence (P53762 whole entry partner): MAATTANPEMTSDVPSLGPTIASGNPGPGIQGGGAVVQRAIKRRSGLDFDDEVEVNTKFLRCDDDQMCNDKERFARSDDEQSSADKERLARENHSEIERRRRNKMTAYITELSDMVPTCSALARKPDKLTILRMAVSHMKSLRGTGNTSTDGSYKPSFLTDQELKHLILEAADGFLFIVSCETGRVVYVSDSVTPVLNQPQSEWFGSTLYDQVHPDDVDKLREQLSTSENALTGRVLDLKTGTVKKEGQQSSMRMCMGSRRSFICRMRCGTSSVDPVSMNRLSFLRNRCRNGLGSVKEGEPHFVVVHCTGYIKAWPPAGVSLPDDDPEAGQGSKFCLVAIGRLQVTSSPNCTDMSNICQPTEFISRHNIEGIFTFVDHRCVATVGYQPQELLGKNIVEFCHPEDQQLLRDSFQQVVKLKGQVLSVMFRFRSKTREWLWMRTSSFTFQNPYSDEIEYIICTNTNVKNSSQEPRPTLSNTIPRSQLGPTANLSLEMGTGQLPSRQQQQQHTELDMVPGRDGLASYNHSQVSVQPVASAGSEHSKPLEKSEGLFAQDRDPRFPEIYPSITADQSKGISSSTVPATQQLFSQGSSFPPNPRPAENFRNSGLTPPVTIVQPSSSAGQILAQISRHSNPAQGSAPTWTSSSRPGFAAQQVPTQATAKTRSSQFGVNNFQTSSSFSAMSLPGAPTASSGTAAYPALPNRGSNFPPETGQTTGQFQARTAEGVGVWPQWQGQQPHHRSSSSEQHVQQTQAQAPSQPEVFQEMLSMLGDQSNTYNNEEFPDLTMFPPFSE

Cn1cc(C(=O)c2cccc3ccccc23)c2cc(Cl)ccc21 [Compound 359, (5-chloro-1-methyl-1H-indol-3-yl)(naphthalen-1-yl)methanone]
Fold @ 1 nM: 1 fold
Fold @ 100 nM: 1 fold
Fold @ 10 uM: 6 fold
Fold relative to benchmark @ 100 nM: 0.03 fold

O=c1c2cccc3cccc(c32)c2nc3ccc(Cl)cc3n12 [Compound 363, 7-chloro-3,10-diazapentacyclo[10.7.1.0^2,10.0^4,9.0^16,20]icosa-1(19),2,4(9),5,7,12,14,16(20),17-nonaen-11-one]
Fold @ 1 nM: 4 fold
Fold @ 100 nM: 14 fold
Fold @ 10 uM: 30 fold
Fold relative to benchmark @ 100 nM: 0.69 fold

O=C(c1cccc2ccccc12)c1c[nH]c2ccc(Cl)cc12 [Compound 364, (5-chloro-1H-indol-3-yl)(naphthalen-1-yl)methanone]
Fold @ 1 nM: 1 fold
Fold @ 100 nM: 2 fold
Fold @ 10 uM: 11 fold
Fold relative to benchmark @ 100 nM: 0.05 fold

O=C(c1cccc2ccccc12)n1ccc2cc(Cl)ccc21 [Compound 366]
Fold @ 1 nM: 1 fold
Fold @ 100 nM: 1 fold
Fold @ 10 uM: 11 fold
Fold relative to benchmark @ 100 nM: 0.03 fold

O=c1c2cccc3cccc(c32)c2cc3ccc(Cl)cc3n12 [Compound 405, 7-chloro-10-azapentacyclo[10.7.1.0^2,10.0^4,9.0^16,20]icosa 1(19),2,4(9),5,7,12,14,16(20),17-nonaen-11-one]
Fold @ 1 nM: 8 fold
Fold @ 100 nM: 31 fold
Fold relative to benchmark @ 100 nM: 0.78 fold

O=C(c1cc2cc(Cl)ccc2o1)c1cccc2ccccc12 [Compound 406, (5-chlorobenzofuran-2-yl)(naphthalen-1-yl)methanone]
Fold @ 1 nM: 1 fold
Fold @ 100 nM: 1 fold
Fold @ 10 uM: 7.5 fold
Fold relative to benchmark @ 100 nM: 0.03 fold

O=C(c1ccncc1)n1c(-c2ccccc2)nc2ccc(Cl)cc21 [Compound 431]
Fold @ 1 nM: 1 fold
Fold @ 100 nM: 1 fold
Fold @ 10 uM: 8 fold
Fold relative to benchmark @ 100 nM: 0.03 fold

O=C(c1ccncc1)n1c(-c2ccccc2)nc2cc(Cl)ccc21 [Compound 432]
Fold @ 1 nM: 1 fold
Fold @ 100 nM: 1 fold
Fold @ 10 uM: 7 fold
Fold relative to benchmark @ 100 nM: 0.03 fold

O=C(c1cccc2ccccc12)c1c[nH]c2cc(Cl)ccc12 [Compound 433]
Fold @ 1 nM: 1 fold
Fold @ 100 nM: 1 fold
Fold @ 10 uM: 7 fold
Fold relative to benchmark @ 100 nM: 0.03 fold

O=C1c2ccccc2-c2nc3ccc(Cl)cc3n21 [Compound 488, 4-chloro-1,8-diazatetracyclo[7.7.0.0^2,7.0^10,15]hexadeca-2,4,6,8,10,12,14-heptaen-16-one]
Fold @ 1 nM: 1 fold
Fold @ 100 nM: 1 fold
Fold @ 10 uM: 4 fold
Fold relative to benchmark @ 100 nM: 0.03 fold

O=C1c2ccccc2-c2nc3cc(Cl)ccc3n21 [Compound 489, 5-chloro-1,8-diazatetracyclo-[7.7.0.0^2,70.^10,15]hexadeca-2,4,6,8,10,12,14-heptaen-16-one]
Fold @ 1 nM: 1 fold
Fold @ 100 nM: 1 fold
Fold @ 10 uM: 5 fold
Fold relative to benchmark @ 100 nM: 0.03 fold

O=C(c1cccc2ccccc12)n1c(-c2ccccc2)nc2cc(Cl)ccc21 [Compound 490, (5-chloro-2-phenyl-1H-benzo[d]imidazol-1-yl)(naphthalen-1-yl)methanone]
Fold @ 1 nM: 1 fold
Fold @ 100 nM: 1 fold
Fold @ 10 uM: 17 fold
Fold relative to benchmark @ 100 nM: 0.03 fold

O=C(c1cccc2ccccc12)n1c(-c2ccccc2)nc2ccc(Cl)cc21 [Compound 491]
Fold @ 1 nM: 1 fold
Fold @ 100 nM: 1 fold
Fold @ 10 uM: 24 fold
Fold relative to benchmark @ 100 nM: 0.03 fold

O=C(c1ccccc1)n1c(-c2ccc(F)cc2)nc2cc(Cl)ccc21 [Compound 492]
Fold @ 1 nM: 1 fold
Fold @ 100 nM: 1 fold
Fold @ 10 uM: 14 fold
Fold relative to benchmark @ 100 nM: 0.03 fold

O=C(c1ccccc1)n1c(-c2ccc(F)cc2)nc2ccc(Cl)cc21 [Compound 493]
Fold @ 1 nM: 1 fold
Fold @ 100 nM: 1 fold
Fold @ 10 uM: 16 fold
Fold relative to benchmark @ 100 nM: 0.03 fold

COc1ccc(-c2nc3cc(Cl)ccc3n2C(=O)c2ccccc2)cc1 [Compound 496]
Fold @ 1 nM: 1 fold
Fold @ 100 nM: 1 fold
Fold @ 10 uM: 3.5 fold
Fold relative to benchmark @ 100 nM: 0.03 fold

COc1ccc(-c2nc3ccc(Cl)cc3n2C(=O)c2ccccc2)cc1 [Compound 497]
Fold @ 1 nM: 1 fold
Fold @ 100 nM: 1.5 fold
Fold @ 10 uM: 3.5 fold
Fold relative to benchmark @ 100 nM: 0.05 fold

Clc1ccc2c(c1)nc1n2Cc2ccccc2-1 [Compound 522, 7-chloro-11H-benzo[4,5]imidazo[2,1-a]isoindole]
Fold @ 1 nM: 1 fold
Fold @ 100 nM: 1 fold
Fold @ 10 uM: 18 fold
Fold relative to benchmark @ 100 nM: 0.07 fold

O=c1c2cccc3cccc(c32)c2nc3ccccc3n12 [Compound 523]
Fold @ 1 nM: 1.8 fold
Fold @ 100 nM: 11.5 fold
Fold @ 10 uM: 12 fold
Fold relative to benchmark @ 100 nM: 0.82 fold

CC1(O)c2cccc3cccc(c23)-c2nc3ccccc3n21 (stereo not drawn) [Compound 525, 7-methyl-7H-benzo[de]benzo[4,5]imidazo[2,1-a]isoquinolin-7-ol]
Fold @ 1 nM: 1 fold
Fold @ 100 nM: 5.6 fold
Fold @ 10 uM: 20 fold
Fold relative to benchmark @ 100 nM: 0.4 fold

c1ccc2c(c1)Cn1c3ccccc3c3ccnc-2c31 [Compound 526]
Fold @ 1 nM: 2.7 fold
Fold @ 100 nM: 10 fold
Fold @ 10 uM: 28 fold
Fold relative to benchmark @ 100 nM: 0.71 fold

Cc1ccc(S(=O)(=O)n2c(-c3cccc4ccccc34)nc3cc(Cl)ccc32)cc1 [Compound 527, 5-chloro-2-(naphthalen-1-yl)-1-tosyl-1H-benzo[d]imidazole]
Fold @ 1 nM: 1 fold
Fold @ 100 nM: 15 fold
Fold @ 10 uM: 36 fold
Fold relative to benchmark @ 100 nM: 0.38 fold

Cc1ccc(S(=O)(=O)n2c(-c3cccc4ccccc34)nc3ccc(Cl)cc32)cc1 [Compound 528, 6-chloro-2-(naphthalen-1-yl)-1-tosyl-1H-benzo[d]imidazole]
Fold @ 1 nM: 1 fold
Fold @ 100 nM: 19 fold
Fold @ 10 uM: 35 fold
Fold relative to benchmark @ 100 nM: 0.48 fold

Clc1ccc2c(c1)nc(-c1cccc3ccccc13)n2Cc1ccccc1 [Compound 533, 1-benzyl-5-chloro-2-(naphthalen-1-yl)-1H-benzimidazole]
Fold @ 1 nM: 1 fold
Fold @ 100 nM: 1 fold
Fold @ 10 uM: 13 fold
Fold relative to benchmark @ 100 nM: 0.03 fold

Cc1ccc(S(=O)(=O)n2c(-c3cccc4ccccc34)nc3ccccc32)cc1 [Compound 579]
Fold @ 1 nM: 1 fold
Fold @ 100 nM: 1 fold
Fold @ 10 uM: 2 fold
Fold relative to benchmark @ 100 nM: 0.07 fold

O=C(c1ccc(F)c(F)c1)n1c(-c2ccc(F)c(Cl)c2)nc2cc(Cl)ccc21 [Compound 580]
Fold @ 1 nM: 1 fold
Fold @ 100 nM: 3 fold
Fold @ 10 uM: 14 fold
Fold relative to benchmark @ 100 nM: 0.2 fold

O=C(c1ccc(F)c(F)c1)n1c(-c2ccc(F)c(Cl)c2)nc2ccc(Cl)cc21 [Compound 581]
Fold @ 1 nM: 1 fold
Fold @ 100 nM: 1 fold
Fold @ 10 uM: 15 fold
Fold relative to benchmark @ 100 nM: 0.07 fold

O=C(c1ccccc1)n1c(-c2ccc(F)c(Cl)c2)nc2cc(Cl)ccc21 [Compound 582]
Fold @ 1 nM: 1 fold
Fold @ 100 nM: 1 fold
Fold @ 10 uM: 14 fold
Fold relative to benchmark @ 100 nM: 0.07 fold
